# ChEMBL document CHEMBL1134435, “Synthesis of novel sialylmimetics as biological probes” (Bioorg Med Chem Lett, 2001)
# Assays:
# E-selectin = target: T1, E-selectin (Homo sapiens, UniProt P16581); assay: Inhibitory concentration against E-selectin
# T1 sequence (P16581 whole entry): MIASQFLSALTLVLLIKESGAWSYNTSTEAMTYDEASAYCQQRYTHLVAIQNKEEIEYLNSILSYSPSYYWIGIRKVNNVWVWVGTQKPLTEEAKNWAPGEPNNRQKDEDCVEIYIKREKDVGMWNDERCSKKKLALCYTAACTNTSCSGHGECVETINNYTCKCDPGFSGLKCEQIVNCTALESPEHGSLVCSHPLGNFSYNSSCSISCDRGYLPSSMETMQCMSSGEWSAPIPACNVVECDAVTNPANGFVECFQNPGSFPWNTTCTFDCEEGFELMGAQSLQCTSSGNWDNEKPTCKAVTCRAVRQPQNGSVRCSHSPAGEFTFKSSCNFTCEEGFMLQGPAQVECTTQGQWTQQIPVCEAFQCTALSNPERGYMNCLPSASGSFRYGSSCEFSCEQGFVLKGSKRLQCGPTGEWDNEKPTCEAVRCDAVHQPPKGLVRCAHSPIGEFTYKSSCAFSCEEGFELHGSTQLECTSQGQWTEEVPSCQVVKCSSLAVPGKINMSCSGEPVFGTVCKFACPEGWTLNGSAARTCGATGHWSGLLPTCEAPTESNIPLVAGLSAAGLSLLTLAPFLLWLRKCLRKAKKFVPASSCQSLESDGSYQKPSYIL
# Rotavirus [1] = assay: Inhibitory concentration against Wa (human) strain of rotavirus; format: functional, organism-based
# Rotavirus [2] = assay: Inhibitory concentration against NCDV (bovine) strain of rotavirus; format: functional, organism-based
IC50 (E-selectin) [µM],IC50 (Rotavirus [1]) [µM],IC50 (Rotavirus [2]) [µM],SMILES
700,–,–,CC(=O)N[C@H]1[C@H]([C@H](O)[C@H](O)CO)O[C@@](O[C@H]2[C@@H](O)[C@@H](CO)O[C@@H](O[C@@H]([C@H](O[C@@H]3O[C@@H](C)[C@@H](O)[C@@H](O)[C@@H]3O)[C@H](C=O)NC(C)=O)[C@H](O)CO)[C@@H]2O)(C(=O)O)C[C@@H]1O [SIALYL LEWIS X]
–,> 25000,> 25000,COC1OC(CSC(C)C(=O)O)C(O)C(O)C1O (centres undefined)
500,–,–,C[C@@H]1O[C@@H](O[C@@H]2CCCC[C@H]2O[C@@H]2O[C@@H](CO)[C@H](O)[C@H](OCC(=O)O)[C@@H]2O)[C@@H](O)[C@@H](O)[C@@H]1O
